Several values for one entry are separate records, joined by “and”; a condition that tells them apart may be missing. Equal values may be shown once.
Experiments:
[1] = biological target: neuraminidase (NA) of influenza B/Perth/136/2015 (MUT-Y273, H273Y NA substitution) (Influenza B virus, UniProt A0A1S5RAG6, H273Y); type: biochemical
[2] = biological target: neuraminidase (NA) of influenza B/Singapore/GP702/2015 (MUT-N197, D197N NA substitution) (Influenza B virus, UniProt A0A1S5RAG6, D197N); type: biochemical

**Q.** For `CCC(CC)[C@H](NC(C)=O)[C@@H]1[C@H](O)[C@@H](C(=O)O)C[C@H]1N=C(N)N` [Peramivir, peramivir], which “Fold difference in IC50 from corresponding wild-type value” [1] is on record?
**A.** 85 fold and 80.9 ± 6.8 (85)^b fold

**Q.** What about the IC50 ([1]; read-out: IC50 (nM), mean ± SD) of the same compound?
**A.** 80.9 nM

**Q.** And the “Fold difference in IC50 from corresponding wild-type value” [2]?
**A.** 3.0 ± 0.7 (3) fold

**Q.** And the IC50 ([2]; read-out: IC50 (nM), mean ± SD)?
**A.** 3 nM

Reference: PMC6201084 (Antimicrobial Agents and Chemotherapy, 2018)
